Assay results from PubChem BioAssay AID1845200 (Molecular Pharmacology Branch, DTP, NCI, 2023).
pIC50: −log10 of the molar value.

Test system: ASPS-1 complex tumor spheroids, viability
Test: Anticancer human tumor ASPS-1 cell line growth inhibition;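 note: spheroids exposed to agents for 7 days after 3 days of growth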;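 for viability, T/C: 100% = DMSO vehicle treated spheroids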
Settings: for pIC50: curve of first compound; for viability, T/C: stronger effect = lower value
Method in brief: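 Single agents and combinations were tested on spheroids built from tumor cells plus HUVEC and hMSC, at half-log dilutions starting at or near clinical Cmax, else 10 microM; final DMSO 0.25% (v/v).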

## CC(C)n1c(=O)n(C)c2cnc3cc(F)c(-c4ccc(OCCCN5CCCCC5)nc4)cc3c21 + Cn1nnc2c(C(N)=O)ncn2c1=O
Second compound 1 µM
  pIC50: 5.08
Second compound 3.16 µM
  pIC50: 5.09
Second compound 10 µM
  pIC50: 5.59
Second compound 31.6 µM
  pIC50: 5.80
Second compound 100 µM
  pIC50: 6.41
Second compound 1 µM, first compound 0.0316 µM
  viability, T/C: 106%
Second compound 1 µM, first compound 0.1 µM
  viability, T/C: 104%
Second compound 1 µM, first compound 0.316 µM
  viability, T/C: 102%
Second compound 1 µM, first compound 1 µM
  viability, T/C: 102%
Second compound 1 µM, first compound 3.16 µM
  viability, T/C: 93.4%
Second compound 1 µM, first compound 10 µM
  viability, T/C: 42.1%
Second compound 3.16 µM, first compound 0.0316 µM
  viability, T/C: 102%
Second compound 3.16 µM, first compound 0.1 µM
  viability, T/C: 102%
Second compound 3.16 µM, first compound 0.316 µM
  viability, T/C: 103%
Second compound 3.16 µM, first compound 1 µM
  viability, T/C: 88.7%
Second compound 3.16 µM, first compound 3.16 µM
  viability, T/C: 82.4%
Second compound 3.16 µM, first compound 10 µM
  viability, T/C: 43%
Second compound 10 µM, first compound 0.0316 µM
  viability, T/C: 91.4%
Second compound 10 µM, first compound 0.1 µM
  viability, T/C: 79.8%
Second compound 10 µM, first compound 0.316 µM
  viability, T/C: 83.5%
Second compound 10 µM, first compound 1 µM
  viability, T/C: 86.7%
Second compound 10 µM, first compound 3.16 µM
  viability, T/C: 42%
Second compound 10 µM, first compound 10 µM
  viability, T/C: 25.4%
Second compound 31.6 µM, first compound 0.0316 µM
  viability, T/C: 81.1%
Second compound 31.6 µM, first compound 0.1 µM
  viability, T/C: 78.1%
Second compound 31.6 µM, first compound 0.316 µM
  viability, T/C: 77.7%
Second compound 31.6 µM, first compound 1 µM
  viability, T/C: 54.7%
Second compound 31.6 µM, first compound 3.16 µM
  viability, T/C: 39.3%
Second compound 31.6 µM, first compound 10 µM
  viability, T/C: 19.9%
Second compound 100 µM, first compound 0.0316 µM
  viability, T/C: 74.5%
Second compound 100 µM, first compound 0.1 µM
  viability, T/C: 60.5%
Second compound 100 µM, first compound 0.316 µM
  viability, T/C: 56.1%
Second compound 100 µM, first compound 1 µM
  viability, T/C: 41.2%
Second compound 100 µM, first compound 3.16 µM
  viability, T/C: 24.4%
Second compound 100 µM, first compound 10 µM
  viability, T/C: 20.2%
